{"source": "the supplement of paper PMC10307832", "assay_in_all_cases": "relative viability (nuclei count vs DMSO), 5 days (fraction); higher = more cells survive", "key": {"HCC-78": {"tested_on": "HCC-78", "summary_of_the_method": "(§1)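 Cells from lung cancer lines were seeded into 1536-well plates and, one day later, dosed by pin tool. Treatments were either a single drug or a fixed dose of an anchor drug with five library-drug doses (not always all listed) in √10 steps. After 5 days, nuclei were stained in a one-step fixation (final 0.05% Triton X-100, 1% formaldehyde, 1 ug/ml Hoechst) and counted on 4× images, and relative viability is the treated-to-vehicle nuclei ratio, as the median of duplicate plates.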"}, "NCI-H522": {"tested_on": "NCI-H522", "summary_of_the_method": "as §1"}, "HCC-827": {"tested_on": "HCC-827", "summary_of_the_method": "as §1"}, "NCI-H661": {"tested_on": "NCI-H661", "summary_of_the_method": "as §1"}, "NCI-H2087": {"tested_on": "NCI-H2087", "summary_of_the_method": "as §1"}, "NCI-H2347": {"tested_on": "NCI-H2347", "summary_of_the_method": "as §1"}, "NCI-H322M": {"tested_on": "NCI-H322M", "summary_of_the_method": "as §1"}, "NCI-H650": {"tested_on": "NCI-H650", "summary_of_the_method": "as §1"}, "LCLC-97TM1": {"tested_on": "LCLC-97TM1", "summary_of_the_method": "as §1"}, "NCI-H1915": {"tested_on": "NCI-H1915", "summary_of_the_method": "as §1"}, "NCI-H2405": {"tested_on": "NCI-H2405", "summary_of_the_method": "as §1"}, "EPLC-272H": {"tested_on": "EPLC-272H", "summary_of_the_method": "as §1"}, "NCI-H520": {"tested_on": "NCI-H520", "summary_of_the_method": "as §1"}}, "data": [{"smiles": "Clc1ccc(Nc2nnc(Cc3ccncc3)c3ccccc23)cc1", "note": "[Vatalanib] + CC(=O)c1c(C)c2cnc(Nc3ccc(N4CCNCC4)cn3)nc2n(C2CCCC2)c1=O [Palbociclib] (partner 0.5 µM)", "values": [{"measurement": "relative viability", "setting": "HCC-78; first compound 1.265 µM", "value": 0.422}, {"measurement": "relative viability", "setting": "HCC-78; first compound 4 µM", "value": 0.485}, {"measurement": "relative viability", "setting": "NCI-H522; first compound 0.04 µM", "value": 0.872}, {"measurement": "relative viability", "setting": "NCI-H522; first compound 0.1265 µM", "value": 1.06}, {"measurement": "relative viability", "setting": "NCI-H522; first compound 0.4 µM", "value": 1.18}, {"measurement": "relative viability", "setting": "NCI-H522; first compound 1.265 µM", "value": 1.06}, {"measurement": "relative viability", "setting": "NCI-H522; first compound 4 µM", "value": 0.993}, {"measurement": "relative viability", "setting": "HCC-827; first compound 0.04 µM", "value": 0.484}, {"measurement": "relative viability", "setting": "HCC-827; first compound 0.1265 µM", "value": 0.406}, {"measurement": "relative viability", "setting": "HCC-827; first compound 1.265 µM", "value": 0.49}, {"measurement": "relative viability", "setting": "HCC-827; first compound 4 µM", "value": 0.475}, {"measurement": "relative viability", "setting": "NCI-H661; first compound 0.04 µM", "value": 0.411}, {"measurement": "relative viability", "setting": "NCI-H661; first compound 0.1265 µM", "value": 0.387}, {"measurement": "relative viability", "setting": "NCI-H661; first compound 0.4 µM", "value": 0.441}, {"measurement": "relative viability", "setting": "NCI-H661; first compound 1.265 µM", "value": 0.397}, {"measurement": "relative viability", "setting": "NCI-H661; first compound 4 µM", "value": 0.401}, {"measurement": "relative viability", "setting": "NCI-H2087; first compound 0.04 µM", "value": 0.251}, {"measurement": "relative viability", "setting": "NCI-H2087; first compound 0.1265 µM", "value": 0.209}, {"measurement": "relative viability", "setting": "NCI-H2087; first compound 0.4 µM", "value": 0.205}, {"measurement": "relative viability", "setting": "NCI-H2087; first compound 1.265 µM", "value": 0.268}, {"measurement": "relative viability", "setting": "NCI-H2087; first compound 4 µM", "value": 0.22}, {"measurement": "relative viability", "setting": "NCI-H2347; first compound 0.04 µM", "value": 0.428}, {"measurement": "relative viability", "setting": "NCI-H2347; first compound 0.1265 µM", "value": 0.423}, {"measurement": "relative viability", "setting": "NCI-H2347; first compound 0.4 µM", "value": 0.494}, {"measurement": "relative viability", "setting": "NCI-H2347; first compound 1.265 µM", "value": 0.418}, {"measurement": "relative viability", "setting": "NCI-H2347; first compound 4 µM", "value": 0.446}, {"measurement": "relative viability", "setting": "NCI-H322M; first compound 0.04 µM", "value": 0.432}, {"measurement": "relative viability", "setting": "NCI-H322M; first compound 0.1265 µM", "value": 0.492}, {"measurement": "relative viability", "setting": "NCI-H322M; first compound 0.4 µM", "value": 0.49}, {"measurement": "relative viability", "setting": "NCI-H322M; first compound 4 µM", "value": 0.501}, {"measurement": "relative viability", "setting": "NCI-H650; first compound 0.04 µM", "value": 0.308}, {"measurement": "relative viability", "setting": "NCI-H650; first compound 0.1265 µM", "value": 0.316}, {"measurement": "relative viability", "setting": "NCI-H650; first compound 0.4 µM", "value": 0.298}, {"measurement": "relative viability", "setting": "NCI-H650; first compound 1.265 µM", "value": 0.32}, {"measurement": "relative viability", "setting": "NCI-H650; first compound 4 µM", "value": 0.32}, {"measurement": "relative viability", "setting": "LCLC-97TM1; first compound 0.04 µM", "value": 0.172}, {"measurement": "relative viability", "setting": "LCLC-97TM1; first compound 0.1265 µM", "value": 0.252}, {"measurement": "relative viability", "setting": "LCLC-97TM1; first compound 0.4 µM", "value": 0.194}, {"measurement": "relative viability", "setting": "LCLC-97TM1; first compound 1.265 µM", "value": 0.247}, {"measurement": "relative viability", "setting": "LCLC-97TM1; first compound 4 µM", "value": 0.21}, {"measurement": "relative viability", "setting": "NCI-H1915; first compound 0.04 µM", "value": 0.533}, {"measurement": "relative viability", "setting": "NCI-H1915; first compound 0.1265 µM", "value": 0.526}, {"measurement": "relative viability", "setting": "NCI-H1915; first compound 0.4 µM", "value": 0.516}, {"measurement": "relative viability", "setting": "NCI-H1915; first compound 1.265 µM", "value": 0.511}, {"measurement": "relative viability", "setting": "NCI-H1915; first compound 4 µM", "value": 0.511}, {"measurement": "relative viability", "setting": "NCI-H2405; first compound 0.04 µM", "value": 0.555}, {"measurement": "relative viability", "setting": "NCI-H2405; first compound 0.1265 µM", "value": 0.496}, {"measurement": "relative viability", "setting": "NCI-H2405; first compound 0.4 µM", "value": 0.54}, {"measurement": "relative viability", "setting": "NCI-H2405; first compound 4 µM", "value": 0.529}, {"measurement": "relative viability", "setting": "EPLC-272H; first compound 0.04 µM", "value": 0.361}, {"measurement": "relative viability", "setting": "EPLC-272H; first compound 0.1265 µM", "value": 0.344}, {"measurement": "relative viability", "setting": "EPLC-272H; first compound 0.4 µM", "value": 0.372}, {"measurement": "relative viability", "setting": "EPLC-272H; first compound 1.265 µM", "value": 0.315}, {"measurement": "relative viability", "setting": "EPLC-272H; first compound 4 µM", "value": 0.358}, {"measurement": "relative viability", "setting": "NCI-H520; first compound 0.04 µM", "value": 0.214}, {"measurement": "relative viability", "setting": "NCI-H520; first compound 0.1265 µM", "value": 0.242}, {"measurement": "relative viability", "setting": "NCI-H520; first compound 0.4 µM", "value": 0.255}, {"measurement": "relative viability", "setting": "NCI-H520; first compound 1.265 µM", "value": 0.199}, {"measurement": "relative viability", "setting": "NCI-H520; first compound 4 µM", "value": 0.19}]}]}
